Results from patent US20260317344A1, “EGFR INHIBITORS FOR TREATING DISEASE” (BLOSSOMHILL THERAPEUTICS, INC., priority 2023, published 2026).

Assays:
[1] = target: EGFR (L858R/T790M/C797S) (Homo sapiens, UniProt P00533, C797S/L858R/T790M); test: HotSpot radiometric kinase assay, inhibition of EGFR L858R/T790M/C797S mutant; type: biochemical; conditions: 33P ATP, room temperature, 120 m
Method in brief: (§1)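 Radiometric filter-binding format: ATP plus 33P-ATP ([…]) was added about 20 min after compound to kinase and substrate in HEPES pH 7.5 buffer with Mg2+, EGTA, Brij35, BSA, vanadate, DTT and 1% DMSO. After 120 min at room temperature, reactions were spotted on P81 paper and washed in phosphoric acid; IC50 values fitted.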

[2] = target: EGFR (D746-750) (Homo sapiens, UniProt P00533, DEL746-750); test: HotSpot radiometric kinase assay, inhibition of EGFR 746-750 mutant; type: biochemical; conditions: 33P ATP, room temperature, 120 m
EGFR (D746-750), sequence (P00533 with tags, fused parts or gaps DEL746-750): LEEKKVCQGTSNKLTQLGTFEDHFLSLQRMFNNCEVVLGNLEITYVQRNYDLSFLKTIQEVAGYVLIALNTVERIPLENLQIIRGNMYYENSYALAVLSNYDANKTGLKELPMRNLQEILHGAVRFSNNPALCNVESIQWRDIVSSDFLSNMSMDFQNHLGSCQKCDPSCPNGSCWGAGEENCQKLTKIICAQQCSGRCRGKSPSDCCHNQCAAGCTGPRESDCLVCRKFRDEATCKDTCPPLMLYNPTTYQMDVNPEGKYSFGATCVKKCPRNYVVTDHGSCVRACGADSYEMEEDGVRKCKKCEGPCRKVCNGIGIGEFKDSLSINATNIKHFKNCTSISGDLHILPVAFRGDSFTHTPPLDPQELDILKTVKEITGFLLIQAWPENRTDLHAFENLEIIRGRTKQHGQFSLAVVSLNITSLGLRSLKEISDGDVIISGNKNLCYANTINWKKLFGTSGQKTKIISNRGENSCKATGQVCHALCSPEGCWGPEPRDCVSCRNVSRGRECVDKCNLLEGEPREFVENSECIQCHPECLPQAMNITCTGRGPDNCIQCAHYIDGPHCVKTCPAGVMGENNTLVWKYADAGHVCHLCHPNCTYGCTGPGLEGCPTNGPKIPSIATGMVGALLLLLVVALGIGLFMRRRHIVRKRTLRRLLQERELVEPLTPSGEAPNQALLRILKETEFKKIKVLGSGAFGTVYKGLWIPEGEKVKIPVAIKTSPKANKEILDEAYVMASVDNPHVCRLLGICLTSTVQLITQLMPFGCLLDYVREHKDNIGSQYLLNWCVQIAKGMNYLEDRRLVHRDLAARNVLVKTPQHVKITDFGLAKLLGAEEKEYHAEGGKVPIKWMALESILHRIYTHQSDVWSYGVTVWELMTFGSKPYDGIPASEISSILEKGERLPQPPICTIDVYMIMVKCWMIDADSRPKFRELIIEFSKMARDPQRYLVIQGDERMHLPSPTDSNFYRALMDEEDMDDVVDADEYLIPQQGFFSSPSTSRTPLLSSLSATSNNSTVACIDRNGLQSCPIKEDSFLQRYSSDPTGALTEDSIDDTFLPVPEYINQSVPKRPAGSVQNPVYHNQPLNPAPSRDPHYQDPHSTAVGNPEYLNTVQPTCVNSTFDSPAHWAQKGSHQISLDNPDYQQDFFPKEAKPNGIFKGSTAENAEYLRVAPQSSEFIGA
Method in brief: as §1

[3] = target: EGFR (D746-750/C797S) (Homo sapiens, UniProt P00533, C797S/DEL746-750); test: HotSpot radiometric kinase assay, inhibition of EGFR 746-750/C797S mutant; type: biochemical; conditions: 33P ATP, room temperature, 120 m
EGFR (D746-750/C797S), sequence (P00533 with tags, fused parts or gaps DEL746-750/C797S): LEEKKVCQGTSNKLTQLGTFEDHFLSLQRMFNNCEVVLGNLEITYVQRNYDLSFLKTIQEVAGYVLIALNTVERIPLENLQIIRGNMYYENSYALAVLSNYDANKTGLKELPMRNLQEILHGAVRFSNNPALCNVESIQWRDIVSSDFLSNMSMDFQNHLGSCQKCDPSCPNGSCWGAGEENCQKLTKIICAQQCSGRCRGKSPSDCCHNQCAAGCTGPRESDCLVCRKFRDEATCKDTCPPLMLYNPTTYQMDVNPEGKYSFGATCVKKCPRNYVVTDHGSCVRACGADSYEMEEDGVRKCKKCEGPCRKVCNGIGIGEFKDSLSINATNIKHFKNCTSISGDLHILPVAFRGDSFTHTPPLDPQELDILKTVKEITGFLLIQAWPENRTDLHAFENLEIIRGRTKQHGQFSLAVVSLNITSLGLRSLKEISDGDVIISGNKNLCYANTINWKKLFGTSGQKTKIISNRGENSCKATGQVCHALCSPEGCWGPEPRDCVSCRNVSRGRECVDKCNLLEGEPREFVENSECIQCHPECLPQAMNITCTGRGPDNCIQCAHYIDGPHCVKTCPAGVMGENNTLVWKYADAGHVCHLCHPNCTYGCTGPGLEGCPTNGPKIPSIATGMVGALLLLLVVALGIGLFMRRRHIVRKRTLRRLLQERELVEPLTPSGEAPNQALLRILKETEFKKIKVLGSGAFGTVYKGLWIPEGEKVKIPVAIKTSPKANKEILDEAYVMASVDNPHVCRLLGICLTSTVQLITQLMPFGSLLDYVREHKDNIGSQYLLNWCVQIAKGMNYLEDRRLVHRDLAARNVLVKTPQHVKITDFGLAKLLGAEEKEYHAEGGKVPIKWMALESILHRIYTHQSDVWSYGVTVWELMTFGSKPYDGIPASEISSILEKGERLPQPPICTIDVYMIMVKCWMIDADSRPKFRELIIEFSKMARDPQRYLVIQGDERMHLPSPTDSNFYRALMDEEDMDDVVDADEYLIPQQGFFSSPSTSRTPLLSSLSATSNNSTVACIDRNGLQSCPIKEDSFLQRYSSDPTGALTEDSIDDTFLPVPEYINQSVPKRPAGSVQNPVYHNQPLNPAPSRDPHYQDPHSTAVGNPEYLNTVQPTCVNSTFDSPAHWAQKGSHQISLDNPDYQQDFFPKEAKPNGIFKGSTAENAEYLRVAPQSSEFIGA
Method in brief: as §1

[4] = target: EGFR (D770_N771insNPG) (Homo sapiens, UniProt P00533, INS770NPG); test: HotSpot radiometric kinase assay, inhibition of EGFR (D770_N771insNPG) mutant; type: biochemical; conditions: 33P ATP, room temperature, 120 m
EGFR (D770_N771insNPG), sequence (P00533 with tags, fused parts or gaps INS770NPG limits assumed): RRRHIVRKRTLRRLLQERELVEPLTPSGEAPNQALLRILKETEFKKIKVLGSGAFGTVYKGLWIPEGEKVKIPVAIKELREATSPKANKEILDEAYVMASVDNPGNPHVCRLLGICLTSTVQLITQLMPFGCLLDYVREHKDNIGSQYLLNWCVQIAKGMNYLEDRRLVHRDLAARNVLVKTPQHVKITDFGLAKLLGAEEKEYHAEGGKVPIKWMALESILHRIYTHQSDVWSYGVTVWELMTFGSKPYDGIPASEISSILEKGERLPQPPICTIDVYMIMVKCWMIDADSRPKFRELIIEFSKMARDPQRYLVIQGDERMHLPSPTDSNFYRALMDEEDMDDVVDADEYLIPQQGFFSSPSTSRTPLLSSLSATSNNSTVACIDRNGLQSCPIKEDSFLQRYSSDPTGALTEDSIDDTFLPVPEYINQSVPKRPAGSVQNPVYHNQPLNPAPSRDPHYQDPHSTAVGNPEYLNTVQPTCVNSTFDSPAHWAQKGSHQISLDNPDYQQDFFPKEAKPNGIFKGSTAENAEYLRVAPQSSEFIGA
Method in brief: as §1

[5] = target: T1, pEGFR, PC-9 cells (d746-750 EGFR) (Homo sapiens, UniProt P00533, DEL746-750); test: Cellular EGFR phosphorylation assay (LANCE Ultra TR-FRET) in PC-9 cells; type: cell-based; conditions: 4 hours at 37° C., read-out: PC-9 pEGFR IC50
T1 construct: pEGFR (Tyr1068) TR-FRET
Method in brief: (§2)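 Phospho-EGFR (Tyr1068) measured by TR-FRET in lysates after 4 h compound exposure at 37° C (9 doses, 3-fold steps). A431 cells, seeded at 30 thousand per well, received 40 ng/mL EGF for the last 10 min; PC-9 and NCI-H1975 seeded at 50 thousand per well, unstimulated. IC50 values reported.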

[6] = target: T2, pEGFR, NCI-H1975 cells (L858R/T790M EGFR) (Homo sapiens, UniProt P00533, L858R/T790M); test: Cellular EGFR phosphorylation assay (LANCE Ultra TR-FRET) in NCI-H1975 cells; type: cell-based; conditions: 4 hours at 37° C., read-out: H1975 pEGFR IC50
T2 construct: pEGFR (Tyr1068) TR-FRET
Method in brief: as §2

[7] = target: T3, pEGFR, A431 cells (wildtype EGFR) (Homo sapiens, UniProt P00533); test: Cellular EGFR phosphorylation assay (LANCE Ultra TR-FRET) in A431 cells; type: cell-based; conditions: 4 hours at 37° C., 40 ng/mL EGF for the final 10 minutes, read-out: A431 pEGFR IC50
T3 construct: pEGFR (Tyr1068) TR-FRET
Method in brief: as §2

[8] = system: PC-9 cells; test: 5-Day CellTiter Glo (CTG) cell proliferation assay, PC-9; type: cell-based; conditions: Homo sapiens; PC-9 cells (d746-750 EGFR), 5-day CTG proliferation, 120 hours; read-out: PC-9 IC50
Method in brief: (§3)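 Proliferation of EGFR-driven NSCLC cells was scored as CellTiter-Glo 2.0 luminescence after a 5-day (120 h) incubation with compounds in 9 doses. IC50 values came from the dose-response curves.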

[9] = system: NCI-H1975 cells; test: 5-Day CellTiter Glo (CTG) cell proliferation assay, NCI-H1975; type: cell-based; conditions: Homo sapiens; NCI-H1975 cells (L858R/T790M EGFR), 5-day CTG proliferation, 120 hours; read-out: H1975 IC50
Method in brief: as §3

[10] = system: HCC827 cells; test: 5-Day CellTiter Glo (CTG) cell proliferation assay, HCC827; type: cell-based; conditions: Homo sapiens; HCC827 cells (d746-750 EGFR), 5-day CTG proliferation, 120 hours; read-out: HCC827 IC50
Method in brief: as §3

[11] = system: BaF3 cells with engineered EGFR L858R/T790M/C797S; test: 3-Day CellTiter Glo (CTG) cell proliferation assay, BaF3 EGFR L858R/T790M/C797S; type: cell-based; conditions: Mus musculus, 3-day CTG proliferation, 72 hours
Method in brief: (§4)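 Viability after 72 h compound exposure (9 concentrations, 37° C, 5% CO2) was measured as ATP luminescence with CellTiter-Glo 2.0 in EGFR-mutant-engineered BaF3 cells plated at one thousand cells per well. IC50 values obtained by curve fitting.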

[12] = system: BaF3 cells with engineered EGFR L858R/C797S; test: 3-Day CellTiter Glo (CTG) cell proliferation assay, BaF3 EGFR L858R/C797S; type: cell-based; conditions: Mus musculus, 3-day CTG proliferation, 72 hours
Method in brief: as §4

[13] = system: BaF3 cells with engineered EGFR d746-750/T790M; test: 3-Day CellTiter Glo (CTG) cell proliferation assay, BaF3 EGFR d746-750/T790M; type: cell-based; conditions: Mus musculus; BaF3 EGFR d746-750/T790M cells, 3-day CTG proliferation, 72 hours
Method in brief: as §4

EGFR (L858R/T790M/C797S), sequence (P00533 25-1210 T790M/C797S/L858R): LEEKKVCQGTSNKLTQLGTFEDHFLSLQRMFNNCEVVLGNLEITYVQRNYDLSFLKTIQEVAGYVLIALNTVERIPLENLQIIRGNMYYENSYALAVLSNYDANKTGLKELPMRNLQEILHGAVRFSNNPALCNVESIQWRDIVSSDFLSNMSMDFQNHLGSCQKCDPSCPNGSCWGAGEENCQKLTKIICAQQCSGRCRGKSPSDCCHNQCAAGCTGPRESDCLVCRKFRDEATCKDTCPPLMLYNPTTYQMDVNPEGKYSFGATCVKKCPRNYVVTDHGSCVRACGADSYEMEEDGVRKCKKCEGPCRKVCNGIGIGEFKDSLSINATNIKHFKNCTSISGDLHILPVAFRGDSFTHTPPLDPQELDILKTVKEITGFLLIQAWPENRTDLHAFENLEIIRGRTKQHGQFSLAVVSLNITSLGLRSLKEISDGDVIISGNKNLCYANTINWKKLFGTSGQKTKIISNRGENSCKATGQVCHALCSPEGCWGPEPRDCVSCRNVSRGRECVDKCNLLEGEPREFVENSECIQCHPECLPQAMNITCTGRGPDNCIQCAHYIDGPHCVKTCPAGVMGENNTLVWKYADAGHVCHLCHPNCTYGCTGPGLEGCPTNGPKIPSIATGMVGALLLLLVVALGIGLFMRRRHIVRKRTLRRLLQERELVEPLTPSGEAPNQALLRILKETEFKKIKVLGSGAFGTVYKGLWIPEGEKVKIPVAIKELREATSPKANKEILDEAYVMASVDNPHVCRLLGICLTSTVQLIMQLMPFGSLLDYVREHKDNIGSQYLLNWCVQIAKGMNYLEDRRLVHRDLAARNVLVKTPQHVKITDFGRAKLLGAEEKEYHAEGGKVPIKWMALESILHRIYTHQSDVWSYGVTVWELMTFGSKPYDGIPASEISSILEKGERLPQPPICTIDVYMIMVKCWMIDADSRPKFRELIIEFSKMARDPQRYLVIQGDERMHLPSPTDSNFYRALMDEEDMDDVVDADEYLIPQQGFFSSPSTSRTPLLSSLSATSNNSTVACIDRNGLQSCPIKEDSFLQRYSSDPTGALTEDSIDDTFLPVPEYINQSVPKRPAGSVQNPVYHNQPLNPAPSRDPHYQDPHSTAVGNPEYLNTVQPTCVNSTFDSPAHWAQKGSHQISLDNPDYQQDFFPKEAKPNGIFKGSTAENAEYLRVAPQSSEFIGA

SMILES	IC50 [1] [nM]	IC50 [2] [nM]	IC50 [3] [nM]	IC50 [4] [nM]	IC50 [5] [nM]	IC50 [6] [nM]	IC50 [7] [nM]	IC50 [8] [nM]	IC50 [9] [nM]	IC50 [10] [nM]	IC50 [11] [nM]	IC50 [12] [nM]	IC50 [13] [nM]
CCOc1nn(CCO)c2c1/C=C/c1n[nH]c3cnc(cc13)-c1c(C)nn(C)c1O[C@@H](C)[C@H]1CCCN1C2 [Ex. 32, 2-[(8aR,9S,19E)-1-ethoxy-9,11,13-trimethyl-7,8,8a,9,11,17-hexahydro-6H-14,16-(azenometheno)tripyrazolo[3,4-f:3′,4′-j:4″,3″-n]pyrrolo[2,1-c][1,4]oxazacyclopentadecin-3(4H)-yl]ethan-1-ol]	0.77	0.33	1.09	0.63	1.08	1.48	9.53	0.54	1.39	0.25	0.87	0.07	0.48
CCOc1nn(CCO)c2c1/C=C/c1n[nH]c3c(C)nc(cc13)-c1cnn(C)c1O[C@H](C)CN(C)C2 [Ex. 38, 2-[(10R,17E)-16-ethoxy-8,10,12,20-tetramethyl-2,8,10,11,12,13-hexahydro-14H-5,3-(azenometheno)tripyrazolo[3,4-f:3′,4′-j:4″,3″-n][1,4]oxazacyclopentadecin-14-yl]ethan-1-ol]	0.25	0.24	0.54	1.9	18.8	3.11	47.5	48.8	27.1	7.9	4.01	6.5	22.1
CCOc1nn(CCO)c2c1/C=C/c1n[nH]c3cnc(cc13)-c1c(C)nn(C)c1OC[C@H](C)N(C(C)C)C2 [Ex. 2, 2-[(11S,17E)-16-ethoxy-6,8,11-trimethyl-12-(propan-2-yl)-2,8,10,11,12,13-hexahydro-14H-5,3-(azenometheno)tripyrazolo[3,4-f:3′,4′-j:4″,3″-n][1,4]oxazacyclopentadecin-14-yl]ethan-1-ol]	0.79	0.22	0.63	0.71	1.35	1.34	9.27	1.81	8.82	0.39	0.9	0.13	0.71
Cc1nn(C)c2c1-c1cc3c(n[nH]c3cn1)/C=C/c1c(OCC#N)nn([C@@H](C)CO)c1CN(C)C[C@H](C)O2 [Ex. 53, {[(10S,17E)-14-[(2S)-1-hydroxypropan-2-yl]-6,8,10,12-tetramethyl-2,10,11,12,13,14-hexahydro-8H-5,3-(azenometheno)tripyrazolo[3,4-f:3′,4′-j:4″,3″-n][1,4]oxazacyclopentadecin-16-yl]oxy}acetonitrile]	0.67	0.37	1.12	0.45	2.57	8.74	21	2.94	15.7	1.1	1.57	0.18	4.31
CCOc1nn(CCO)c2c1/C=C/c1n[nH]c3cnc(cc13)-c1cnn(C)c1O[C@@H](C)CN(C1CC1)C2 [Ex. 30, 2-[(10S,17E)-12-cyclopropyl-16-ethoxy-8,10-dimethyl-2,8,10,11,12,13-hexahydro-14H-5,3-(azenometheno)tripyrazolo[3,4-f:3,4′-j:4″,3″-n][1,4]oxazacyclopentadecin-14-yl]ethan-1-ol]	0.19	0.15	0.49	0.15	3.64	3.31	14	4.44	1.96	0.5	1.02	0.14	0.65
CCOc1nn([C@@H](C)CO)c2c1/C=C/c1n[nH]c3cnc(cc13)-c1c(C)nn(C)c1OCCN(C)C2 [Ex. 59, (2S)-2-[(17E)-16-ethoxy-6,8,12-trimethyl-2,8,10,11,12,13-hexahydro-14H-5,3-(azenometheno)tripyrazolo[3,4-f:3′,4′-j:4″,3″-n][1,4]oxazacyclopentadecin-14-yl]propan-1-ol]	0.99	0.37	1.33	1.13	1.96	1.43	5.29	3.21	15.7	0.94	0.91	0.18	3.62
CCOc1nn(CCO)c2c1/C=C/c1n[nH]c3cnc(cc13)-c1c(C)nn(C)c1O[C@H](C)[C@H]1CCCN1C2 [Ex. 33, 2-[(8aR,9R,19E)-1-ethoxy-9,11,13-trimethyl-7,8,8a,9,11,17-hexahydro-6H-14,16-(azenometheno)tripyrazolo[3,4-f:3′,4′-j:4″,3″-n]pyrrolo[2,1-c][1,4]oxazacyclopentadecin-3(4H)-yl]ethan-1-ol]	0.31	0.15	0.66	0.17	1.5	2.38	17.6	0.58	1.1	0.44	1.6	0.11	1.07
Cc1nn(C)c2c1-c1cc3c(n[nH]c3cn1)/C=C/c1c(OCC#N)nn(CCO)c1CN1CCC[C@@H]1C(C)O2 (single isomer, unassigned) [Ex. 50]	0.39	0.19	0.68	0.21	1.07	3.43	19.3	0.51	5.55	0.41	1.14	0.12	2.99
CCOc1nn([C@@H](C)CO)c2c1/C=C/c1n[nH]c3cnc(cc13)-c1c(C)nn(C)c1O[C@H](C)CN(C)C2 [Ex. 35, (2S)-2-[(10R,17E)-16-ethoxy-6,8,10,12-tetramethyl-2,8,10,11,12,13-hexahydro-14H-5,3-(azenometheno)tripyrazolo[3,4-f:3′,4′-j:4″,3″-n][1,4]oxazacyclopentadecin-14-yl]propan-1-ol]	0.41	0.22	0.66	0.24	1.56	1.25	15.1	2.56	3.05	0.51	0.89	0.14	0.46
CCOc1nn([C@@H](C)CO)c2c1/C=C/c1n[nH]c3cnc(cc13)-c1c(C)nn(C)c1O[C@@H](C)[C@H]1CCCN1C2 [Ex. 56, (2S)-2-[(8aR,9S,19E)-1-ethoxy-9,11,13-trimethyl-7,8,8a,9,11,17-hexahydro-6H-14,16-(azenometheno)tripyrazolo[3,4-f:3′,4′-j:4″,3″-n]pyrrolo[2,1-c][1,4]oxazacyclopentadecin-3(4H)-yl]propan-1-ol]	0.98	0.45	1.11	0.67	0.82	1.26	8.41	0.32	0.92	0.28	0.61	0.05	0.48
